Here are results for 1 compound from patent US12303588B2, “Composition containing Cirsium japonicum extract as active ingredient for stimulating melanogenesis” (BIOSPECTRUM, INC., priority 2017, dated 2025).

The data set relates to human skin. Briefly: Cumulative skin irritation patch test (safety to the human skin). It counts as in vivo. Conditions: 30 adults; for Number of subjects showing response ±: 1st week. As to the method: In order to identify as to whether the Cirsium japonicum extract is safe or not, a test for identifying the safety to the human skin was performed. For this, a cumulative skin irritation was carried out. A nutritious cream containing 0.1%, 0.5% and 1% of Cirsium japonicum extracts of Example 1, respectively, was prepared. Specifically, purified water, triethanolamine, and propylene glycol were heated and dissolved at a temperature of 70° C. (aqueous phase). Beeswax, liquid paraffin, oily ingredients, emulsifiers and preservatives were heated and dissolved at a temperature of 70° C. (oil phase). The oil phase was added to the aqueous phase to prepare an emulsion. After emulsification was completed, the solution was cooled to 45° C., and Cirsium japonicum extracts were added 0.1%, 0.5% and 1% respectively, dispersed and then cooled to 30° C. As the content of the Cirsium japonicum extract was increased to 0.1%, 0.5% and 1%, the nutritional cream was prepared by reducing the content of the liquid paraffin to 9.91%, 9.51% and 9.01%, respectively. The nourishing cream prepared as described above was applied as a patch to areas of humerus of 30 adults for accumulated 24 hours on alternate day in total 9 times to test as to whether the Cirsium japonicum extract stimulates the skin. The patch used Finn chamber ([…]) and the patch was practiced after dropping with […] of the skin external preparations prepared from the above, respectively. The degree of the reaction represented on the skin in every time was scored by using the below experimental formula 1. Mean reaction degree=[{(reaction index×reaction degree)/(total number of the subject×the highest score (four point))}×100]/times of the test (9times) [Experimental Formula 1] In regard to the response degree, 1 point was provided for ±, 2 points for +, and 4 points for ++. When the mean reaction degree is less than 3, it is considered as being the safe composition.

Regarding `CC(C)=CCC/C(C)=C/CC/C(C)=C/CC/C=C(\C)CC/C=C(\C)CCC=C(C)C` [Control group (Squalene), Squalene], the “Number of subjects showing response ±” value reads like this: (1st application) 1; (2nd application) 0. The Average response degree (24 h patch on alternate days, 9 times, less than 3 = safe) is on record as 0.09.
